This note sets out measurements from patent US8058243B2, “Method for treating a brain cancer with ifenprodil” (HSC Research and Development Limited Partnership, priority 2006, dated 2011).

The assay relates to murine neural precursor cells (neurosphere cultures). Description: HTS of LOPAC library against secondary neurosphere cultures, MTT proliferation assay at 3 μM, day 7 (z score, P value). In kind it is cell-based, mouse. In general terms: Tetrazolium dyes change colour on reduction, which living cells bring about.
Where [1] appears, read: yes = significantly inhibited neurosphere proliferation (P<0.01) in the primary screen.
[2] abbreviates: yes/no: significantly inhibited neurosphere proliferation (P<0.01) in primary screen.
Setting [3] is: LOPAC primary screen, neurosphere MTT proliferation, 3 μM, day 7.
Setting [4] is: LOPAC library screen at 3 μM, MTT, secondary neurosphere cultures, screened in singlets.
[5] abbreviates: yes/no: significantly inhibited neurosphere proliferation in primary screen.
The mark [6] stands for this setting: LOPAC library screen, 3 μM, MTT, neurosphere cultures.
The mark [7] stands for this setting: LOPAC library screen at 3 μM, secondary neurosphere cultures, MTT.
The mark [8] stands for this setting: primary LOPAC screen, 3 μM, MTT, neurosphere proliferation.
[9] abbreviates: yes/no: significantly inhibited neurosphere proliferation in the primary screen.
[10] abbreviates: LOPAC screen, neurosphere MTT proliferation, 3 μM, day 7.
[11] abbreviates: yes/no: significantly inhibited neurosphere proliferation (P<0.01) in the primary screen.
Where [12] appears, read: LOPAC library screen, 3 μM, MTT, secondary neurosphere cultures, day 7.

Counter-ions that a name gives are not always drawn. Like-named read-outs stand apart in the source and are kept apart here.

`Cc1cccc(C#Cc2ccccc2)n1.Cl` [6-Methyl-2-(phenylethynyl)pyridine hydrochloride]: where the note is “168 h, 3 µM”, the “Z Score” value was found to be 0.09366 and the Z score is recorded as 0.094. Under setting [1], the Activity result is “no”.
`Br.CCSC(=N)N` [S-Ethylisothiourea hydrobromide]: for the setting “168 h, 3 µM”, the “Z Score” value is −1.599 and the Z score is −1.599. The Activity entry under setting [2] is “no”.
As for `NC(=O)COc1c(F)cc(SCCNS(=O)(=O)c2ccccc2)cc1F` [2,6-Difluoro-4-[2-(phenylsulfonylamino)ethylthio]phenoxyacetamide], the “Z Score” value is on record as −0.4983. Under setting [3], the Z score is listed as −0.498. Moreover, under setting [1], the Activity entry is reported as “no”.
With `COc1ccc(CCN(C)CCCC(C#N)(c2cc(OC)c(OC)c(OC)c2)C(C)C)cc1OC.Cl` (racemic) [(±)-Methoxyverapamil hydrochloride], the Z score under setting [3] is reported as −1.407. Moreover, the Activity result under setting [1] is “no”.
For `CCCNC(C)C(=O)Nc1ccccc1C` (stereo not drawn) [Prilocaine hydrochloride], under setting [4], the “Z Score” value worked out at 1.509. The compound further came in with a Z score under setting [3] of 1.509. Besides, the Activity entry under setting [5] is “no”.
For `O=C(O)c1cc(=O)c2ccccc2[nH]1` [Kynurenic acid], the “Z Score” value under setting [6] is 0.7018. The compound also gave a Z score under setting [3] of 0.702. In addition, the Activity entry under setting [2] is given as “no”.
In the case of `S=C(NC1CCCCC1)N1CCC(c2cnc[nH]2)CC1` [Thioperamide maleate], the “Z Score” value under setting [7] is listed as −0.1537. The compound also came in with a Z score under setting [8] of −0.154. Further, the Activity entry under setting [9] was “no”.
For `Cl.Fc1ccc(CN(C2=NCCN2)c2c(Cl)cccc2Cl)cc1` [IMID-4F hydrochloride], the “Z Score” value is recorded as −1.906. The compound further gave a Z score under setting [3] of −1.906. Also, the Activity entry under setting [2] is on record as “no”.
For the compound `N[C@@H](CC(=O)O)C(=O)O` [L-Aspartic acid], the Activity result is “no”. Besides, under “168 h, 3 µM”, the “Z Score” value stood at 0.1632 and the Z score was 0.163.
As for `NCCS` [Cysteamine hydrochloride], under setting [7], the “Z Score” value is on record as −0.5989. Further, the Z score under setting [3] is given as −0.599. The Activity result under setting [1] was “no”.
For L-Methionine sulfoximine, the Activity result is reported as “no”, the “Z Score” value was 0.08671 and the Z score was 0.087.
For the compound `N[C@@H](COP(=O)(O)O)C(=O)O` [O-Phospho-L-serine], the “Z Score” value under setting [6] was 0.5472. Further, the Z score under setting [3] amounted to 0.547. Further, under setting [5], the Activity result is “no”.
With `N[C@H](CCCCCP(=O)(O)O)C(=O)O` [D(−)-2-Amino-7-phosphonoheptanoic acid], the Activity result is “no”, the “Z Score” value came to 0.9855 and the Z score was determined as 0.985.
Take `N.N.[Cl][Pt][Cl]` [Cisplatin]: the “Z Score” value under setting [4] was 1.523. Under setting [3], this compound gave a Z score of 1.523. Besides, the Activity entry under setting [5] is “no”.
As to `Nc1ccc(CCNc2ncnc3c2ncn3[C@@H]2O[C@H](CO)[C@@H](O)[C@H]2O)cc1` [N6-2-(4-Aminophenyl)ethyladenosine], under “168 h, 3 µM”, the “Z Score” value was −1.323 and the Z score is recorded as −1.323. The Activity entry under setting [9] was “no”.
As to `Br.Cc1o[nH]c(=O)c1CC(N)C(=O)O` (stereo not drawn) [(B1)-AMPA hydrobromide], the “Z Score” value is reported as −0.4272.
Regarding `CCCCCCCCCCCCCCC[C@H](O)[C@H](N)CO` (racemic) [DL-erythro-Dihydrosphingosine], the “Z Score” value under setting [6] is given as −0.0785. Under setting [10], this compound returned a Z score of −0.079. Further, under setting [2], the Activity result is listed as “no”.
As to `COc1nc(C)nc(Cl)c1N=C1NCCN1` [Moxonidine hydrochloride], the “Z Score” value under setting [6] stood at 0.2171. Also, the Z score under setting [3] amounted to 0.217. Besides, the Activity entry under setting [1] is “no”.
`CC(=O)S[C@@H]1CC2=CC(=O)CC[C@]2(C)[C@H]2CC[C@@]3(C)[C@@H](CC[C@@]34CCC(=O)O4)[C@H]12` [Spironolactone]: the Activity result is reported as “no”. Under setting [7], the “Z Score” value is given as −0.5258. Further, the Z score under setting [3] is reported as −0.526.
In the case of `CCN(CC)CCOC(=O)C1(C2CCCCC2)CCCCC1` [Dicyclomine hydrochloride], under “168 h, 3 µM”, the “Z Score” value was found to be 1.414 and the Z score is 1.414.
For the compound `O=[N+]([O-])c1cccc2cn[nH]c12` [7-Nitroindazole (34), 7-Nitroindazole, reference compound], the “Z Score” value is −1.349. Under setting [3], the Z score was −1.349. In addition, the Activity result under setting [1] is on record as “no”.
On to `Cc1[nH]c(=O)c(C#N)cc1-c1ccncc1` [Milrinone], for which the “Z Score” value under setting [6] was 0.05506. Further, the Z score under setting [3] turned out to be 0.055. In addition, the Activity entry under setting [1] is given as “no”.
Regarding `Cl.NO` [Hydroxylamine hydrochloride], the Activity entry is listed as “no”, the “Z Score” value was 1.635 and the Z score worked out at 1.635.
On to `CC(C)NC[C@@H](O)c1ccc(O)c(O)c1.O=C(O)C(O)C(O)C(=O)O` [S(+)-Isoproterenol(+)-bitartrate], for which the Z score under setting [3] is given as −0.296. Further, the Activity result under setting [2] is on record as “no”.
Turning to `Oc1cc2c(cc1O)[C@H]1c3ccccc3CN[C@@H]1CC2` (racemic) [Dihydrexidine hydrochloride], the “Z Score” value under setting [7] is on record as −0.4153. The same compound returned a Z score under setting [10] of −0.415. Besides, the Activity result under setting [2] is “no”.
In the case of `CCN(CC)C(C)C(=O)N1c2ccccc2Sc2ccccc21.Cl` (stereo not drawn) [10-(alpha-Diethylaminopropionyl)-phenothiazine hydrochloride], the “Z Score” value is recorded as −1.545.
With `CC(C)NCC(O)c1ccc(O)c(O)c1.Cl` (stereo not drawn) [(B1)-Isoproterenol hydrochloride], the “Z Score” value is −0.5717.
With LY-310,762 hydrochloride, the “Z Score” value stood at 0.05111. Also, the Z score under setting [3] is recorded as 0.051. Besides, the Activity entry under setting [11] is on record as “no”.
`CC(C)N(CCC(C(N)=O)(c1ccccc1)c1ccccn1)C(C)C` (stereo not drawn) [Disopyramide]: under setting [12], the “Z Score” value is −4.179. The same compound returned a Z score under setting [3] of −4.179. Besides, the Activity entry under setting [11] is listed as “yes”.
Consider `O=c1ccn([C@@H]2O[C@H](COP(=O)([O-])OP(=O)([O-])[O-])[C@@H](O)[C@H]2O)c(=O)[nH]1.[Na+].[Na+].[Na+]` [Uridine 5′-diphosphate sodium], for which, for the setting “168 h, 3 µM”, the “Z Score” value stood at 0.7074 and the Z score stood at 0.707. Further, the Activity entry under setting [9] is listed as “no”.
With `CC(C)C1C2CCC(C2)C1N.Cl` (stereo not drawn) [AGN 192403 hydrochloride], the “Z Score” value was 0.7032. Besides, the Z score under setting [8] was found to be 0.703. Moreover, the Activity result under setting [9] was “no”.
Take `Nc1nnc(-c2cccc(Cl)c2Cl)c(N)n1` [Lamotrigine]: the “Z Score” value under setting [7] is −1.095. The compound further registered a Z score under setting [3] of −1.095. Further, the Activity result under setting [2] was “no”.
`Cc1ccc(S(=O)(=O)N[C@@H](CCCCN)C(=O)CCl)cc1.Cl`: the Activity result was “no” and the “Z Score” value is 0.004812. Moreover, the Z score under setting [3] came out at 0.005.
In the case of `Cc1c(C)c2c(c(C)c1O)CCC(C)(CN1CCN(c3cc(N4CCCC4)nc(N4CCCC4)n3)CC1)O2.Cl.Cl` (stereo not drawn) [U-83836 dihydrochloride], the “Z Score” value came out at 0.954. Under setting [3], this compound registered a Z score of 0.954. The Activity entry under setting [11] was “no”.
As to `COc1cc(C(O)C(=O)O)ccc1O` (racemic) [(±)-Vanillylmandelic acid], the Z score (168 h, 3 µM) was −1.811. In addition, the Activity entry under setting [2] is “no”.
For the compound `Cc1nnc2ccc(-c3cccc(C(F)(F)F)c3)nn12` [3-Methyl-6-(3-[trifluoromethyl]phenyl)-1,2,4-triazolo[4,3-b]pyridazine], the “Z Score” value amounted to 0.09095. The compound further registered a Z score under setting [3] of 0.091. Also, the Activity result under setting [1] is reported as “no”.
As for `Nn1nnc2ccccc21` [1-Aminobenzotriazole], where the note is “168 h, 3 µM”, the “Z Score” value is recorded as 0.5236 and the Z score amounted to 0.524. In addition, under setting [9], the Activity entry is “no”.
In the case of `COc1ccc2[nH]c3c(c2c1)CCNC3`, the Z score under setting [3] is given as −2.661. Further, the Activity result under setting [1] is reported as “yes”.
As for `Nc1nc(O)c2ncn(COC(CO)CO)c2n1` [Ganciclovir], the “Z Score” value under setting [12] was −8.939. Under setting [3], this compound displayed a Z score of −8.939. For the same compound, the Activity entry under setting [11] is “yes”.
For `N[C@@H](Cc1ccc(N(CCCl)CCCl)cc1)C(=O)O` [Melphalan], the “Z Score” value is −3.907. Under setting [3], this compound showed a Z score of −3.907. Under setting [11], the Activity entry is given as “yes”.
Turning to `COC(=O)[C@@H](N)CCCN=C(N)N[N+](=O)[O-].Cl`, the “Z Score” value under setting [12] was −1.411. Besides, under setting [3], the Z score is given as −1.411. The Activity result under setting [1] is on record as “no”.
On to `CC[N+](CC)(CC)CCOc1cccc(OCC[N+](CC)(CC)CC)c1OCC[N+](CC)(CC)CC` [Gallamine triethiodide], for which, under setting [7], the “Z Score” value was −0.9156. For the same compound, the Z score under setting [3] is recorded as −0.916. The Activity result under setting [2] was “no”.
As for `CN(C)CCCC1(c2ccc(F)cc2)OCc2cc(C#N)ccc21` (stereo not drawn) [Citalopram hydrobromide], the “Z Score” value under setting [12] is recorded as −1.858. The compound also returned a Z score under setting [10] of −1.858. In addition, under setting [2], the Activity result was “no”.
For `N[C@@H](Cn1oc(=O)[nH]c1=O)C(=O)O` [(+)-Quisqualic acid], the “Z Score” value is reported as 0.4361. Moreover, the Z score under setting [3] is reported as 0.436. Further, under setting [5], the Activity entry is given as “no”.
On to `CCCn1c(=O)c2[nH]c(C3CCCC3)nc2n(CCC)c1=O` [8-Cyclopentyl-1,3-dipropylxanthine], for which, under “168 h, 3 µM”, the “Z Score” value was −0.07021 and the Z score is reported as −0.070. Under setting [2], the Activity entry is listed as “no”.
For the compound `NC(=O)c1ccccc1` [Benzamide], for the setting “168 h, 3 µM”, the Z score turned out to be 0.550. In addition, the Activity entry under setting [9] is “no”.
